ChEMBL document CHEMBL1149031, “New bioactive taxoids from cell cultures of Taxus baccata” (1994)
One block for each molecule: values may come before it.

Key:
Bos taurus [1] = species on record: Bos taurus; experiment: Ratio of compound ED50 to taxol ED50 for bovine brain tubulin assembly at 1.5 mg/ml of tubulin concentration
Bos taurus [2] = species on record: Bos taurus; experiment: Induction of bovine brain tubulin assembly at 1 mg/ml of tubulin concentration
Bos taurus [3] = species on record: Bos taurus; experiment: Induction of bovine brain tubulin assembly at 1.5 mg/ml of tubulin concentration
Bos taurus [4] = species on record: Bos taurus; experiment: Ratio of compound ED50 to taxol ED50 for bovine brain tubulin assembly at 1 mg/ml of tubulin concentration
OVCAR-3 = experiment: Cytotoxicity against human OVCAR-3 cells; format: functional
HOP-62 = experiment: Cytotoxicity against human HOP62 cells; format: functional
NCI-H460 = experiment: Cytotoxicity against human NCI-H460 cells; format: functional
SF-539 = experiment: Cytotoxicity against human SF539 cells; format: functional
COLO 205 = experiment: Cytotoxicity against human COLO205 cells; format: functional; conditions: for CC50: read-out: LC50 (the source's name)
SNB-75 = experiment: Cytotoxicity against human SNB75 cells; format: functional; conditions: for CC50: read-out: LC50 (the source's name)
DMS-114 = experiment: Cytotoxicity against human DMS114 cells; format: functional; conditions: for CC50: read-out: LC50 (the source's name)

ED50 (Bos taurus [2]): 2350 nM | Ratio ED50 (Bos taurus [4]): 2.04
SMILES: CCCC(=O)N[C@@H](c1ccccc1)[C@@H](O)C(=O)O[C@H]1C[C@@]2(O)[C@@H](OC(=O)c3ccccc3)[C@@H]3[C@]4(OC(C)=O)CO[C@@H]4C[C@H](O)[C@@]3(C)C(=O)[C@H](OC(C)=O)C(=C1C)C2(C)C

ED50 (Bos taurus [2]): 2960 nM | Ratio ED50 (Bos taurus [4]): 2.57
SMILES: CCCCCC(=O)N[C@@H](c1ccccc1)[C@@H](O)C(=O)O[C@H]1C[C@@]2(O)[C@@H](OC(=O)c3ccccc3)[C@@H]3[C@]4(OC(C)=O)CO[C@@H]4C[C@H](O)[C@@]3(C)C(=O)[C@H](O)C(=C1C)C2(C)C

The remaining lines, values behind:

SMILES: C/C=C(\C)C(=O)N[C@@H](c1ccccc1)[C@@H](O)C(=O)O[C@H]1C[C@@]2(O)[C@@H](OC(=O)c3ccccc3)[C@@H]3[C@]4(OC(C)=O)CO[C@@H]4C[C@H](O)[C@@]3(C)C(=O)[C@H](OC(C)=O)C(=C1C)C2(C)C
Ratio ED50 (Bos taurus [1]): 1.11 | ED50 (Bos taurus [2]): 850 nM | ED50 (Bos taurus [3]): 950 nM | Ratio ED50 (Bos taurus [4]): 1.05

SMILES: CCCCCC(=O)N(C)[C@@H](c1ccccc1)[C@@H](O)C(=O)O[C@H]1C[C@@]2(O)[C@@H](OC(=O)c3ccccc3)[C@@H]3[C@]4(OC(C)=O)CO[C@@H]4C[C@H](O)[C@@]3(C)C(=O)[C@H](OC(C)=O)C(=C1C)C2(C)C
ED50 (Bos taurus [2]): 1910 nM | Ratio ED50 (Bos taurus [4]): 1.66

SMILES: CC(=O)O[C@H]1C(=O)[C@@]2(C)[C@H]([C@H](OC(=O)c3ccccc3)[C@]3(O)C[C@H](OC(=O)[C@H](O)[C@@H](NC(=O)c4ccccc4)c4ccccc4)C(C)=C1C3(C)C)[C@]1(OC(C)=O)CO[C@@H]1C[C@@H]2O [PACLITAXEL]
GI50 (OVCAR-3): 19.7 nM | TGI (OVCAR-3): 48.7 nM | GI50 (HOP-62): 67.1 nM | TGI (HOP-62): > 1000 nM | GI50 (NCI-H460): 21.9 nM | TGI (NCI-H460): > 1000 nM | GI50 (SF-539): 3.66 nM | TGI (SF-539): 89.9 nM | CC50 (SF-539; read-out: LC50 (the source's name)): > 25000 nM | ED50 (Bos taurus [2]): 950 nM | ED50 (Bos taurus [3]): 760 nM | GI50 (COLO 205): 1.76 nM | TGI (COLO 205): 43.2 nM | CC50 (COLO 205): 145 nM | GI50 (SNB-75): 8.08 nM | TGI (SNB-75): 77.3 nM | CC50 (SNB-75): > 1000 nM | GI50 (DMS-114): 12.3 nM | TGI (DMS-114): 61.2 nM | CC50 (DMS-114): > 1000 nM

SMILES: CCCCCC(=O)N[C@@H](c1ccccc1)[C@@H](O)C(=O)O[C@H]1C[C@@]2(O)[C@@H](OC(=O)c3ccccc3)[C@@H]3[C@]4(OC(C)=O)CO[C@@H]4C[C@H](O)[C@@]3(C)C(=O)[C@H](OC(C)=O)C(=C1C)C2(C)C [TAXOL C]
GI50 (OVCAR-3): < 10 nM | LC50 (OVCAR-3): > 100000 nM | TGI (OVCAR-3): < 10 nM | GI50 (HOP-62): < 10 nM | LC50 (concentration killing 50% of cells) (HOP-62): 32000 nM | TGI (HOP-62): 12.1 nM | Ratio ED50 (Bos taurus [1]): 1.82 | GI50 (NCI-H460): < 10 nM | LC50 (NCI-H460): 69800 nM | TGI (NCI-H460): 349 nM | GI50 (SF-539): < 10 nM | TGI (SF-539): < 10 nM | ED50 (Bos taurus [2]): 1000 nM | ED50 (Bos taurus [3]): 1400 nM | GI50 (COLO 205): < 10 nM | TGI (COLO 205): 22.9 nM | CC50 (COLO 205): 23300 nM | Ratio ED50 (Bos taurus [4]): 1.05 | GI50 (SNB-75): < 10 nM | TGI (SNB-75): 19.2 nM | CC50 (SNB-75): > 100000 nM | GI50 (DMS-114): < 10 nM | TGI (DMS-114): 23.8 nM | CC50 (DMS-114): 21700 nM
